In PubChem BioAssay AID328 (DTP/NCI, 2004):
Several values for one entry are separate records, joined by “and”; a condition that tells them apart may be missing. Equal values may be shown once. Inconclusive results and toxic doses are left out.

Tested on: BDF1 mice, P388 leukemia ip, median survival T/C
Assay: NCI In Vivo Anticancer Drug Screen. Data for tumor model P388 Leukemia (intraperitoneal) in B6D2F1 (BDF1) mice
Conditions: endpoint: median survival time, higher = longer survival
Procedure, shortened: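 T/C = treated-group survival ÷ vehicle-control survival; tumour transplanted into mice before dosing.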

[1] = dose: 100.0 mg/kg/injection, schedule: Q04DX003 (ip), vehicle: saline
[2] = dose: 400.0 mg/kg/injection, schedule: Q04DX003 (ip), vehicle: saline
[3] = dose: 50.0 mg/kg/injection, schedule: Q01DX009 (ip), vehicle: saline with Tween-80
[4] = dose: 100.0 mg/kg/injection, schedule: Q01DX009 (ip), vehicle: saline with Tween-80
[5] = dose: 200.0 mg/kg/injection, schedule: Q01DX009 (ip), vehicle: saline with Tween-80
[6] = dose: 100.0 mg/kg/injection, schedule: Q04DX003 (ip), vehicle: saline with Tween-80
[7] = dose: 200.0 mg/kg/injection, schedule: Q04DX003 (ip), vehicle: saline with Tween-80
[8] = dose: 400.0 mg/kg/injection, schedule: Q04DX003 (ip), vehicle: saline with Tween-80

## S=C(S)NCCNC(=S)S
dose: 40.0 mg/kg/injection, schedule: Q01DX009 (ip), vehicle: saline
  T/C: 120 % of control
dose: 60.0 mg/kg/injection, schedule: Q01DX009 (ip), vehicle: saline
  T/C: 108 % of control
dose: 85.0 mg/kg/injection, schedule: Q04DX003 (ip), vehicle: saline
  T/C: 109 % of control
dose: 88.0 mg/kg/injection, schedule: Q01DX009 (ip), vehicle: saline
  T/C: 100 % of control
dose: 88.0 mg/kg/injection, schedule: Q04DX003 (ip), vehicle: saline
  T/C: 109 % of control
dose: 100.0 mg/kg/injection, schedule: Q01DX009 (ip), vehicle: saline
  T/C: 115 % of control
[1]
  T/C: 109 % of control and 118 % of control
dose: 132.0 mg/kg/injection, schedule: Q04DX003 (ip), vehicle: saline
  T/C: 104 % of control
dose: 150.0 mg/kg/injection, schedule: Q01DX009 (ip), vehicle: saline
  T/C: 115 % of control
dose: 300.0 mg/kg/injection, schedule: Q04DX003 (ip), vehicle: saline
  T/C: 109 % of control
dose: 350.0 mg/kg/injection, schedule: Q01DX009 (ip), vehicle: saline
  T/C: 120 % of control
[2]
  T/C: 100 % of control and 118 % of control

## CN(C)NC1OC(C(O)S(=O)(=O)O)C(OCc2ccccc2)C(OCc2ccccc2)C1O (centres undefined)
[3]
  T/C: 109 % of control
[4]
  T/C: 98 % of control
[5]
  T/C: 94 % of control

## Cc1nc2ccccc2nc1CC(O)(c1ccccc1)c1cccc2ccccc12 (centres undefined)
[3]
  T/C: 94 % of control
[4]
  T/C: 95 % of control
[5]
  T/C: 97 % of control

## O=C(O)CCCCCCCCC(=O)O
[3]
  T/C: 98 % of control
[4]
  T/C: 98 % of control
[5]
  T/C: 94 % of control
dose: 400.0 mg/kg/injection, schedule: Q01DX009 (ip), vehicle: saline with Tween-80
  T/C: 93 % of control

## CC1CC=CCC1COC(=O)C(=O)OCC1CC=CCC1C (centres undefined)
[6]
  T/C: 105 % of control
[7]
  T/C: 105 % of control
[8]
  T/C: 110 % of control

## CC1CC(C)(C)N=C(C(C)CC(C)(C)C)O1 (centres undefined)
dose: 50.0 mg/kg/injection, schedule: Q04DX003 (ip), vehicle: saline sonified
  T/C: 90 % of control
dose: 100.0 mg/kg/injection, schedule: Q04DX003 (ip), vehicle: saline sonified
  T/C: 100 % of control
dose: 200.0 mg/kg/injection, schedule: Q04DX003 (ip), vehicle: saline sonified
  T/C: 100 % of control

## O=C1c2cccc(O)c2C(=O)c2c(O)cccc21
[1]
  T/C: 100 % of control and 109 % of control
dose: 200.0 mg/kg/injection, schedule: Q04DX003 (ip), vehicle: saline
  T/C: 109 % of control
[2]
  T/C: 95 % of control and 118 % of control

## CC(C)(O)/C=C/C(=O)C(C)(O)C1C(O)CC2(C)C3CC=C4C(CC(O)C(O)C4(C)C)C3(C)C(=O)CC12C (centres undefined)
dose: 0.25 mg/kg/injection, schedule: Q01DX010 (ip), vehicle: carboxymethylcellulose (CMC)
  T/C: 100 % of control
dose: 0.5 mg/kg/injection, schedule: Q01DX010 (ip), vehicle: carboxymethylcellulose (CMC)
  T/C: 105 % of control
dose: 1.0 mg/kg/injection, schedule: Q01DX010 (ip), vehicle: carboxymethylcellulose (CMC)
  T/C: 95 % of control
dose: 2.0 mg/kg/injection, schedule: Q01DX010 (ip), vehicle: carboxymethylcellulose (CMC)
  T/C: 110 % of control

## COc1ccc(/C=C2\CCC3C(CCCC34OCCO4)C2=O)cc1 (centres undefined)
dose: 45.0 mg/kg/injection, schedule: Q01DX009 (ip), vehicle: Klucel (hydroxypropylcellulose) (HPC)
  T/C: 104 % of control
[3]
  T/C: 100 % of control
dose: 65.0 mg/kg/injection, schedule: Q01DX009 (ip), vehicle: Klucel (hydroxypropylcellulose) (HPC)
  T/C: 95 % of control
dose: 100.0 mg/kg/injection, schedule: Q01DX009 (ip), vehicle: Klucel (hydroxypropylcellulose) (HPC)
  T/C: 118 % of control
[4]
  T/C: 104 % of control
dose: 100.0 mg/kg/injection, schedule: Q04DX003 (ip), vehicle: other
  T/C: 91 % of control
dose: 150.0 mg/kg/injection, schedule: Q01DX009 (ip), vehicle: Klucel (hydroxypropylcellulose) (HPC)
  T/C: 90 % of control
dose: 200.0 mg/kg/injection, schedule: Q01DX009 (ip), vehicle: Klucel (hydroxypropylcellulose) (HPC)
  T/C: 100 % of control
[5]
  T/C: 96 % of control
dose: 200.0 mg/kg/injection, schedule: Q04DX003 (ip), vehicle: other
  T/C: 108 % of control
dose: 400.0 mg/kg/injection, schedule: Q01DX009 (ip), vehicle: Klucel (hydroxypropylcellulose) (HPC)
  T/C: 95 % of control
dose: 400.0 mg/kg/injection, schedule: Q04DX003 (ip), vehicle: other
  T/C: 95 % of control

## C[C@@H]1CN(C(=O)CCOS(C)(=O)=O)[C@@H](C)CN1C(=O)CCOS(C)(=O)=O
dose: 50.0 mg/kg/injection, schedule: Q04DX003 (ip), vehicle: saline with Tween-80
  T/C: 166 % of control
[4]
  T/C: 272 % of control
[6]
  T/C: 208 % of control
[5]
  T/C: 104 % of control
[7]
  T/C: 172 % of control
dose: 264.0 mg/kg/injection, schedule: Q04DX003 (ip), vehicle: saline with Tween-80
  T/C: 233 % of control
[8]
  T/C: 250 % of control and 272 % of control

## CSC(=O)OCC1=CC2OC(=O)C3=COC(OC4OC(CO)C(O)C(O)C4O)C1C32 (centres undefined)
dose: 2.0 mg/kg/injection, schedule: Q01DX009 (ip), vehicle: saline with Tween-80
  T/C: 101 % of control
dose: 4.0 mg/kg/injection, schedule: Q01DX009 (ip), vehicle: saline with Tween-80
  T/C: 101 % of control
dose: 16.0 mg/kg/injection, schedule: Q01DX009 (ip), vehicle: saline with Tween-80
  T/C: 111 % of control

## OCCc1ccccc1
dose: 100.0 mg/kg/injection, schedule: Q01DX009 (ip), vehicle: saline sonified
  T/C: 100 % of control
dose: 200.0 mg/kg/injection, schedule: Q01DX009 (ip), vehicle: saline sonified
  T/C: 100 % of control
